{"source": "patent US10752581B2", "about": "“4-((2-hydroxy-3-methoxybenzyl)amino)benzenesulfonamide derivatives as potent and selective inhibitors of 12-lipoxygenase” (Eastern Virginia Medical School, priority 2013, dated 2020)", "key": {"[1]": {"test_system": "human primary donor islets", "assay": "Human Islet (12-HETE Inhibition) Assay", "type": "cell-based", "details": "10 μM"}, "[2]": {"assay": "Microsomal stability (mouse)", "type": "in vitro ADME"}, "washed human platelets": {"test_system": "washed human platelets", "assay": "FcγRIIa-mediated platelet aggregation", "type": "cell-based", "details": "ML355 20 μM, 15 minutes; anti-CD9 stimulation or IV.3 + GAM cross-linking", "description": "(§1) Preparation of washed human platelets: Prior to blood collection written informed consent was obtained from all volunteers. Washed platelets were isolated from the blood of healthy volunteers as previously described (14). Washed platelets were resuspended in tyrodes buffer at 3.0×10^8 platelets/mL unless otherwise indicated.\n(§2) FcγRIIa-mediated platelet activation: FcγRIIa-mediated platelet activation was initiated by two distinct models; either 1) FcγRIIa antibody cross-linking or 2) CD9 monoclonal antibody stimulation. To cross-link FcγRIIa, washed platelets were incubated with IV.3, an FcγRIIa mouse monoclonal antibody, for one minute followed by the addition of a goat anti-mouse (GAM) IgG antibody to cross-link FcγRIIa. The concentration of FcγRIIa cross-linking antibodies used for each experiment is indicated in the text. Alternatively, washed human platelets were stimulated with an anti-CD9 monoclonal antibody to activate FcγRIIa mediated signaling. Due to inter-individual variability in anti-CD9 response, a range of anti-CD9 concentration (0.25-1 μg/ml) was used to achieve an aggregation of EC80. […]\nPlatelet aggregation: Platelet aggregation was measured with a lumi-aggregometer (Chronolog Corp, Model 700D) under stirring conditions at 37° C."}, "[3]": {"test_system": "FcγRIIa-stimulated platelets", "assay": "αIIbβ3 activation after FcγRIIa stimulation", "type": "cell-based, human", "details": "ML355 pre-treatment; IV.3 + GAM", "description": "as §1\nas §2, with “signaling.” for “signaling. Due to inter-individual variability in anti-CD9 response, a range of anti-CD9 concentration (0.25-1 μg/ml) was used to achieve an aggregation of EC80.”\nAlpha granule release and αIIbβ3 activation: Prior to stimulation, washed platelets were pre-incubated with a either FITC-conjugated P-selectin antibody or FITC-conjugated PAC-1, an antibody specific for the active conformation of αIIb3. […] Fluorescence intensity was measured by flow cytometry. Results are reported as mean fluorescence intensity."}, "[4]": {"test_system": "FcγRIIa-stimulated platelets", "assay": "PKC activation assay", "type": "cell-based, human", "method": "FcγRIIa-mediated platelet activation: FcγRIIa-mediated platelet activation was initiated by two distinct models; either 1) FcγRIIa antibody cross-linking or 2) CD9 monoclonal antibody stimulation. To cross-link FcγRIIa, washed platelets were incubated with IV.3, an FcγRIIa mouse monoclonal antibody, for one minute followed by the addition of a goat anti-mouse (GAM) IgG antibody to cross-link FcγRIIa. The concentration of FcγRIIa cross-linking antibodies used for each experiment is indicated in the text. Alternatively, washed human platelets were stimulated with an anti-CD9 monoclonal antibody to activate FcγRIIa mediated signaling. Due to inter-individual variability in anti-CD9 response, a range of anti-CD9 concentration (0.25-1 μg/ml) was used to achieve an aggregation of EC80. In studies using the 12-LOX inhibitor (ML355), washed platelets were incubated with either ML355 (20 μM), or DMSO (vehicle control) for 15 minutes prior to FcγRIIa stimulation.\nPKC activation assay: Washed platelets were stimulated by FcγRIIa antibody cross-linking under stirring conditions (1100 rpm) in an aggregometer at 37° C. Reactions were stopped by the addition of 5X× Laemmli sample buffer at the indicated times. As a positive control platelets were treated with PMA ([…]), a direct PKC agonist, for one minute. […]"}, "[5]": {"assay": "Parallel Artificial Membrane Permeability Assay (PAMPA)", "details": "PAMPA at pH 7.4"}}, "note": "Entries after “also recorded” stand apart in the source; their conditions may differ. Marks after values point to notes of the source that are not given here.", "data": [{"molecule": "COc1cccc(CNc2ccc(S(=O)(=O)Nc3nc4ccccc4s3)cc2)c1O", "note": "[Compound 35, N-(benzo[d]thiazol-2-yl)-4-((2-hydroxy-3-methoxybenzyl)amino)benzenesulfonamide]", "values": [{"measurement": "AA/IONO-induced 12-HETE production in human islets", "setting": "[1]", "value": "significant inhibition of AA/IONO-induced 12-HETE production"}, {"measurement": "Microsomal stability T1/2 (min)", "setting": "[2]; in the presence of NADPH", "value": ">300^a min"}, {"measurement": "half-life", "setting": "[2]; microsomes, read-out: microsomal stability T1/2", "value": "> 5", "unit": "h"}, {"measurement": "FcγRIIa-mediated platelet aggregation", "setting": "washed human platelets", "value": "attenuated FcγRIIa-mediated platelet aggregation; also recorded: significantly attenuated aggregation"}, {"measurement": "αIIbβ3 activation", "setting": "[3]", "value": "significant attenuated along multiple signaling steps"}, {"measurement": "PKC activation", "setting": "[4]; ML355 (20 μM), 30 and 60 seconds, FcγRIIa cross-linking", "value": "significant decrease in PKC activation"}, {"measurement": "PKC activation by PMA", "setting": "[4]; PMA, a direct PKC activator", "value": "no difference in its ability to activate PKC"}, {"measurement": "permeability (1 × 10^−6 cm/s)", "setting": "[5]", "value": "394^c 1 × 10^−6 cm/s"}]}]}
